# Measured values: ChEMBL document CHEMBL1201862, “PubChem BioAssay data set” (2004)
#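 These data come from cells grown in 96-well plates and exposed to compound for 48 hours at five concentrations. At the GI50, growth is halved.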 Activity calls are given as the source filed them. No stated cut-off is given here; in the data, active = GI50 up to about 1.1 µM and inactive = higher.
# Columns and labels:
# Experiment in all cases: NCI tumour cell line growth inhibition, 48 h
# [1] = test system: SN12C
# [2] = test system: SF-539
# [3] = test system: SK-MEL-28
# [4] = test system: CCRF-CEM
# [5] = test system: HCT-15
# [6] = test system: UACC-257
# [7] = test system: A549
# [8] = test system: NCI/ADR-RES
# [9] = test system: MDA-MB-231
# [10] = test system: Hs-578T
# [11] = test system: KM12
# [12] = test system: A498
# [13] = test system: ACHN
# [14] = test system: UACC-62
# [15] = test system: SK-OV-3
# [16] = test system: T47D
# [17] = test system: SNB-75
# [18] = test system: TK-10
# [19] = test system: Malme-3M
SMILES,GI50 [1],GI50 [2],GI50 [3],GI50 [4],GI50 [5],GI50 [6],GI50 [7],GI50 [8],GI50 [9],GI50 [10],GI50 [11],GI50 [12],GI50 [13],GI50 [14],GI50 [15],GI50 [16],GI50 [17],GI50 [18],GI50 [19]
CC(=O)Nc1nc(NC(C)=O)c2nc(CO)[nH]c2n1,> 100 µM (inactive),> 100 µM (inactive),> 100 µM (inactive),> 100 µM (inactive),> 100 µM,> 100 µM (inactive),> 100 µM (inactive),> 100 µM (inactive),> 100 µM (inactive),> 100 µM (inactive),> 100 µM (inactive),> 100 µM (inactive),> 100 µM (inactive),> 100 µM (inactive),> 100 µM (inactive),> 100 µM (inactive),> 100 µM (inactive),> 100 µM (inactive),> 100 µM (inactive)
COc1ccc(/C=C/C(=O)c2cc(OC)cc(OC)c2)cc1,3.56 µM (inactive),1.05 µM (active),5.97 µM (inactive),2.07 µM (inactive),0.543 µM,13.6 µM (inactive),2.13 µM (inactive),2.69 µM (inactive),6.79 µM (inactive),5.75 µM (inactive),0.265 µM (active),3.67 µM (inactive),4.7 µM (inactive),4.14 µM (inactive),6.71 µM (inactive),3.11 µM (inactive),2.64 µM (inactive),11.5 µM (inactive),13.6 µM (inactive)
Cc1cccc(C)c1NC(=O)C(Cc1c[nH]c2ccccc12)NC(=O)OCc1ccccc1 (centres undefined),21.5 µM (inactive),20.2 µM (inactive),18.9 µM (inactive),17.8 µM (inactive),22.3 µM,14.5 µM (inactive),14.6 µM (inactive),14.4 µM (inactive),16.7 µM (inactive),33.1 µM (inactive),19.6 µM (inactive),21.2 µM (inactive),19.8 µM (inactive),16.6 µM (inactive),22.8 µM (inactive),20.6 µM (inactive),18.7 µM (inactive),19.2 µM (inactive),20.1 µM (inactive)
CO/N=[N+](\[O-])NC(C)C,> 100 µM (inactive),> 100 µM (inactive),> 100 µM (inactive),> 100 µM (inactive),> 100 µM,> 100 µM (inactive),> 100 µM (inactive),> 100 µM (inactive),> 100 µM (inactive),> 100 µM (inactive),> 100 µM (inactive),> 100 µM (inactive),> 100 µM (inactive),> 100 µM (inactive),> 100 µM (inactive),> 100 µM (inactive),> 100 µM (inactive),> 100 µM (inactive),> 100 µM (inactive)
O=C(O)C1C2C=CC(O2)C1C(=O)NCc1cccnc1 (centres undefined),> 100 µM (inactive),> 100 µM (inactive),> 100 µM (inactive),> 100 µM (inactive),> 100 µM,72.6 µM (inactive),> 100 µM (inactive),> 100 µM (inactive),> 100 µM (inactive),51.8 µM (inactive),> 100 µM (inactive),> 100 µM (inactive),> 100 µM (inactive),> 100 µM (inactive),> 100 µM (inactive),> 100 µM (inactive),> 100 µM (inactive),> 100 µM (inactive),> 100 µM (inactive)
CN(C)CCn1c(=O)c2ccc(NCCN3CCNCC3)c3c(=O)c4ccccc4n(c1=O)c23,1.47 µM (inactive),0.473 µM (active),6.61 µM (inactive),0.207 µM (active),1.53 µM,4.07 µM (inactive),0.962 µM (active),9.93 µM (inactive),2.56 µM (inactive),3.04 µM (inactive),1.63 µM (inactive),4.15 µM (inactive),1.27 µM (inactive),3.47 µM (inactive),3.45 µM (inactive),9.68 µM (inactive),2.13 µM (inactive),4.86 µM (inactive),4.12 µM (inactive)
